# Source: the supplement of paper PMC10307832
# What was measured:
# Assay in all cases: relative viability (nuclei count vs DMSO), 5 days (fraction); higher = more cells survive
# NCI-H1355 = tested on: NCI-H1355
# In short: (§1)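 Lung cancer cell lines were pin-tool dosed in 1536-well plates on the day after seeding, with either a lone drug or a fixed anchor-drug dose plus five library-drug doses (not always all listed) in √10 steps. Nuclei were counted on 4× images after 5 days. Relative viability is the ratio of treated-well to vehicle-well nuclei counts, with each value a median of duplicate plates.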
# NCI-H1437 = tested on: NCI-H1437
# In short: as §1
# HARA = tested on: HARA
# In short: as §1
# HCC-44 = tested on: HCC-44
# In short: as §1
# NCI-H2342 = tested on: NCI-H2342
# In short: as §1
# NCI-H2228 = tested on: NCI-H2228
# In short: as §1
# NCI-H1734 = tested on: NCI-H1734
# In short: as §1
# NCI-H2170 = tested on: NCI-H2170
# In short: as §1
# NCI-H1792 = tested on: NCI-H1792
# In short: as §1
# HCC-827 = tested on: HCC-827
# In short: as §1
# EKVX = tested on: EKVX
# In short: as §1
# NCI-H2009 = tested on: NCI-H2009
# In short: as §1
# NCI-H647 = tested on: NCI-H647
# In short: as §1
# NCI-H2405 = tested on: NCI-H2405
# In short: as §1
# NCI-H661 = tested on: NCI-H661
# In short: as §1
# NCI-H2087 = tested on: NCI-H2087
# In short: as §1
# NCI-H1395 = tested on: NCI-H1395
# In short: as §1
# NCI-H596 = tested on: NCI-H596
# In short: as §1
# SK-MES-1 = tested on: SK-MES-1
# In short: as §1
# LOU-NH91 = tested on: LOU-NH91
# In short: as §1
# LC-2-ad = tested on: LC-2-ad
# In short: as §1
# SK-LU-1 = tested on: SK-LU-1
# In short: as §1
# BEN = tested on: BEN
# In short: as §1
smiles,measurement,setting,value
CC(C)Oc1cc(Nc2nc(N[C@@H](C)c3ccc(F)cn3)ncc2Cl)n[nH]1 [AZ23] + CCNC(=O)c1noc(-c2cc(C(C)C)c(O)cc2O)c1-c1ccc(CN2CCOCC2)cc1 [Luminespib] (partner 0.01 µM),relative viability,NCI-H1355; first compound 0.01 µM,0.671
same,relative viability,NCI-H1355; first compound 0.03162 µM,0.768
same,relative viability,NCI-H1355; first compound 0.3162 µM,0.715
same,relative viability,NCI-H1437; first compound 0.01 µM,1.29
same,relative viability,NCI-H1437; first compound 0.03162 µM,1.25
same,relative viability,NCI-H1437; first compound 0.3162 µM,1.2
same,relative viability,HARA; first compound 0.03162 µM,0.822
same,relative viability,HARA; first compound 0.3162 µM,1.34
same,relative viability,HCC-44; first compound 0.01 µM,0.863
same,relative viability,HCC-44; first compound 0.03162 µM,1.22
same,relative viability,HCC-44; first compound 0.3162 µM,1.22
same,relative viability,NCI-H2342; first compound 0.01 µM,0.658
same,relative viability,NCI-H2342; first compound 0.03162 µM,0.679
same,relative viability,NCI-H2342; first compound 0.3162 µM,0.718
same,relative viability,NCI-H2228; first compound 0.01 µM,0.179
same,relative viability,NCI-H2228; first compound 0.03162 µM,0.141
same,relative viability,NCI-H2228; first compound 0.3162 µM,0.0999
same,relative viability,NCI-H1734; first compound 0.01 µM,0.184
same,relative viability,NCI-H1734; first compound 0.03162 µM,0.181
same,relative viability,NCI-H1734; first compound 0.3162 µM,0.169
same,relative viability,NCI-H2170; first compound 0.01 µM,1.01
same,relative viability,NCI-H2170; first compound 0.03162 µM,0.739
same,relative viability,NCI-H2170; first compound 0.3162 µM,0.822
same,relative viability,NCI-H1792; first compound 0.01 µM,0.305
same,relative viability,NCI-H1792; first compound 0.03162 µM,0.646
same,relative viability,NCI-H1792; first compound 0.3162 µM,0.466
same,relative viability,HCC-827; first compound 0.01 µM,0.372
same,relative viability,HCC-827; first compound 0.03162 µM,0.74
same,relative viability,HCC-827; first compound 0.3162 µM,0.649
same,relative viability,EKVX; first compound 0.01 µM,0.861
same,relative viability,EKVX; first compound 0.03162 µM,0.84
same,relative viability,EKVX; first compound 0.3162 µM,0.924
same,relative viability,NCI-H2009; first compound 0.01 µM,1.05
same,relative viability,NCI-H2009; first compound 0.03162 µM,1.17
same,relative viability,NCI-H2009; first compound 0.3162 µM,1.1
same,relative viability,NCI-H647; first compound 0.01 µM,0.125
same,relative viability,NCI-H647; first compound 0.03162 µM,0.107
same,relative viability,NCI-H647; first compound 0.3162 µM,0.149
same,relative viability,NCI-H2405; first compound 0.01 µM,0.717
same,relative viability,NCI-H2405; first compound 0.03162 µM,0.679
same,relative viability,NCI-H2405; first compound 0.3162 µM,0.661
same,relative viability,NCI-H661; first compound 0.01 µM,1.06
same,relative viability,NCI-H661; first compound 0.03162 µM,0.867
same,relative viability,NCI-H661; first compound 0.3162 µM,0.984
same,relative viability,NCI-H2087; first compound 0.01 µM,0.151
same,relative viability,NCI-H2087; first compound 0.03162 µM,0.171
same,relative viability,NCI-H2087; first compound 0.3162 µM,0.169
same,relative viability,NCI-H1395; first compound 0.03162 µM,0.658
same,relative viability,NCI-H1395; first compound 0.3162 µM,0.771
same,relative viability,NCI-H596; first compound 0.01 µM,1.13
same,relative viability,NCI-H596; first compound 0.03162 µM,1.06
same,relative viability,NCI-H596; first compound 0.3162 µM,0.857
same,relative viability,SK-MES-1; first compound 0.03162 µM,0.834
same,relative viability,SK-MES-1; first compound 0.3162 µM,0.952
same,relative viability,LOU-NH91; first compound 0.01 µM,0.387
same,relative viability,LOU-NH91; first compound 0.03162 µM,0.349
same,relative viability,LOU-NH91; first compound 0.3162 µM,0.324
same,relative viability,LC-2-ad; first compound 0.01 µM,1.26
same,relative viability,LC-2-ad; first compound 0.03162 µM,0.965
same,relative viability,LC-2-ad; first compound 0.3162 µM,0.93
same,relative viability,SK-LU-1; first compound 0.03162 µM,0.216
same,relative viability,SK-LU-1; first compound 0.3162 µM,0.18
same,relative viability,BEN; first compound 0.01 µM,0.287
same,relative viability,BEN; first compound 0.03162 µM,0.378
same,relative viability,BEN; first compound 0.3162 µM,0.243
